Laboratory results: ChEMBL document CHEMBL2203027, “Lanostanoids from fungi: a group of potential anticancer compounds” (J Nat Prod, 2012)
In brackets after ≈: the same amount, converted by molar mass.

Key:
[1] = tested on: DU-145; experiment: Cytotoxicity against human DU145 cells; type: functional, cell-based
[2] = tested on: HeLa; experiment: Cytotoxicity against human HeLa cells; type: functional, cell-based; conditions: Homo sapiens, HeLa
[3] = Inhibition of rat microsomal 5-alpha reductase assessed as inhibition of conversion of [4-14C]testosterone to [4-14C] dihydrotestosterone after 10 mins
[4] = Cytotoxicity against human 95-D cells; type: functional, cell-based
[5] = tested on: NUGC-3; experiment: Cytotoxicity against human NUGC3 cells; type: functional, cell-based
[6] = biological target: T1, DNA topoisomerase 2-alpha (Homo sapiens, UniProt P11388); experiment: Inhibition of topoisomerase 2
[7] = Growth inhibition of H-Ras transformed rat Rat2 cells; type: functional
[8] = tested on: J82; experiment: Growth inhibition of H-Ras expressing human J82 cells; type: functional
[9] = tested on: SGC-7901; experiment: Cytotoxicity against human SGC7901 cells; type: functional, cell-based
[10] = tested on: P388; experiment: Cytotoxicity against mouse P388 cells; type: functional, cell-based
[11] = tested on: Bel-7402; experiment: Cytotoxicity against human Bel7402 cells; type: functional, cell-based
[12] = tested on: Lewis lung carcinoma cell line; experiment: Antitumor activity against mouse LLC cells allografted in C57B/6 mouse assessed as inhibition of tumor metastasis at 28 mg/kg relative to control; type: functional; set-up: scale not given: the % may be the effect or the level left
[13] = tested on: Lewis lung carcinoma cell line; experiment: Antitumor activity against mouse LLC cells allografted in C57B/6 mouse assessed as tumor growth inhibition at 28 mg/kg relative to control; type: functional; conditions: read-out: TGI
[14] = biological target: T2, DNA topoisomerase 1 (Homo sapiens, UniProt P11387); experiment: Inhibition of topoisomerase 1 in human HuH7 cells; type: cell-based, Huh-7
[15] = biological target: T1, DNA topoisomerase 2-alpha; experiment: Inhibition of topoisomerase 2a in human HuH7 cells; type: cell-based, Huh-7
[16] = tested on: Lewis lung carcinoma cell line; experiment: Antitumor activity against mouse LLC cells allografted in mouse assessed as reduction in tumor size at 5 mg/kg, ip qd for 2 weeks measured on day 14 relative to control; type: functional; conditions: route intraperitoneal
[17] = tested on: Lewis lung carcinoma cell line; experiment: Antitumor activity against mouse LLC cells allografted in mouse assessed as reduction in tumor size at 10 mg/kg, ip qd for 2 weeks measured on day 14 relative to control; type: functional; conditions: route intraperitoneal
[18] = tested on: Lewis lung carcinoma cell line; experiment: Antitumor activity against mouse LLC cells allografted in mouse assessed as reduction in tumor size at 2 mg/kg, ip qd for 2 weeks measured on day 20 relative to control; type: functional; conditions: route intraperitoneal
[19] = tested on: Lewis lung carcinoma cell line; experiment: Antitumor activity against mouse LLC cells allografted in mouse assessed as reduction in tumor size at 2 mg/kg, ip qd for 2 weeks measured on day 14 relative to control; type: functional; conditions: route intraperitoneal
[20] = tested on: Lewis lung carcinoma cell line; experiment: Antitumor activity against mouse LLC cells allografted in mouse assessed as reduction in tumor size at 20 mg/kg, ip qd for 2 weeks measured on day 20 relative to control; type: functional; conditions: route intraperitoneal
[21] = tested on: Lewis lung carcinoma cell line; experiment: Antitumor activity against mouse LLC cells allografted in mouse assessed as reduction in tumor size at 10 mg/kg, ip qd for 2 weeks measured on day 20 relative to control; type: functional; conditions: route intraperitoneal
[22] = tested on: Lewis lung carcinoma cell line; experiment: Antitumor activity against mouse LLC cells allografted in mouse assessed as reduction in tumor size at 5 mg/kg, ip qd for 2 weeks measured on day 20 relative to control; type: functional; conditions: route intraperitoneal
[23] = tested on: Lewis lung carcinoma cell line; experiment: Antitumor activity against mouse LLC cells allografted in mouse assessed as reduction in tumor size at 20 mg/kg, ip qd for 2 weeks measured on day 14 relative to control; type: functional; conditions: route intraperitoneal
[24] = tested on: Huh-7; experiment: Cytotoxicity against human HuH7 cells; type: functional, cell-based
[25] = Cytotoxicity against human Hep3B cells; type: functional, cell-based, Hep 3B2
[26] = tested on: K562; experiment: Cytotoxicity against human K562 cells; type: functional, cell-based
[27] = tested on: HepG2; experiment: Cytotoxicity against human HepG2 cells; type: functional, cell-based
[28] = Cytotoxicity against mouse Meth-A cells; type: functional, cell-based
[29] = biological target: T2, DNA topoisomerase 1; experiment: Inhibition of topoisomerase 1
[30] = Cytotoxicity against mouse LLC cells; type: functional, cell-based; conditions: Lewis lung carcinoma
[31] = tested on: T47D; experiment: Cytotoxicity against human T47D cells; type: functional, cell-based
[32] = tested on: CCRF S-180; experiment: Cytotoxicity against mouse S180 cells; type: functional, cell-based
[33] = tested on: L1210; experiment: Cytotoxicity against mouse L1210 cells; type: functional, cell-based
[34] = tested on: COLO 205; experiment: Cytotoxicity against human COLO205 cells; type: functional, cell-based
[35] = tested on: P388; experiment: Antitumor activity against mouse P388 cells allografted in CDF1 mouse assessed as increase in survival rate at 10 mg/kg; type: functional
[36] = tested on: P388; experiment: Antiproliferative activity against mouse P388 cells; type: functional, cell-based
[37] = tested on: P388; experiment: Antitumor activity against mouse P388 cells allografted in CDF1 mouse assessed as increase in survival rate at 3 mg/kg; type: functional
[38] = tested on: HL-60; experiment: Cytotoxicity against human HL60 cells; type: functional, cell-based
[39] = organism: Mus musculus; experiment: Inhibition of TPA-induced tumor progression in mouse skin at 0.2 umol measured at week 20; type: functional
[40] = tested on: A549; experiment: Cytotoxicity against human A549 cells; type: functional, cell-based

T1 sequence (P11388 whole entry): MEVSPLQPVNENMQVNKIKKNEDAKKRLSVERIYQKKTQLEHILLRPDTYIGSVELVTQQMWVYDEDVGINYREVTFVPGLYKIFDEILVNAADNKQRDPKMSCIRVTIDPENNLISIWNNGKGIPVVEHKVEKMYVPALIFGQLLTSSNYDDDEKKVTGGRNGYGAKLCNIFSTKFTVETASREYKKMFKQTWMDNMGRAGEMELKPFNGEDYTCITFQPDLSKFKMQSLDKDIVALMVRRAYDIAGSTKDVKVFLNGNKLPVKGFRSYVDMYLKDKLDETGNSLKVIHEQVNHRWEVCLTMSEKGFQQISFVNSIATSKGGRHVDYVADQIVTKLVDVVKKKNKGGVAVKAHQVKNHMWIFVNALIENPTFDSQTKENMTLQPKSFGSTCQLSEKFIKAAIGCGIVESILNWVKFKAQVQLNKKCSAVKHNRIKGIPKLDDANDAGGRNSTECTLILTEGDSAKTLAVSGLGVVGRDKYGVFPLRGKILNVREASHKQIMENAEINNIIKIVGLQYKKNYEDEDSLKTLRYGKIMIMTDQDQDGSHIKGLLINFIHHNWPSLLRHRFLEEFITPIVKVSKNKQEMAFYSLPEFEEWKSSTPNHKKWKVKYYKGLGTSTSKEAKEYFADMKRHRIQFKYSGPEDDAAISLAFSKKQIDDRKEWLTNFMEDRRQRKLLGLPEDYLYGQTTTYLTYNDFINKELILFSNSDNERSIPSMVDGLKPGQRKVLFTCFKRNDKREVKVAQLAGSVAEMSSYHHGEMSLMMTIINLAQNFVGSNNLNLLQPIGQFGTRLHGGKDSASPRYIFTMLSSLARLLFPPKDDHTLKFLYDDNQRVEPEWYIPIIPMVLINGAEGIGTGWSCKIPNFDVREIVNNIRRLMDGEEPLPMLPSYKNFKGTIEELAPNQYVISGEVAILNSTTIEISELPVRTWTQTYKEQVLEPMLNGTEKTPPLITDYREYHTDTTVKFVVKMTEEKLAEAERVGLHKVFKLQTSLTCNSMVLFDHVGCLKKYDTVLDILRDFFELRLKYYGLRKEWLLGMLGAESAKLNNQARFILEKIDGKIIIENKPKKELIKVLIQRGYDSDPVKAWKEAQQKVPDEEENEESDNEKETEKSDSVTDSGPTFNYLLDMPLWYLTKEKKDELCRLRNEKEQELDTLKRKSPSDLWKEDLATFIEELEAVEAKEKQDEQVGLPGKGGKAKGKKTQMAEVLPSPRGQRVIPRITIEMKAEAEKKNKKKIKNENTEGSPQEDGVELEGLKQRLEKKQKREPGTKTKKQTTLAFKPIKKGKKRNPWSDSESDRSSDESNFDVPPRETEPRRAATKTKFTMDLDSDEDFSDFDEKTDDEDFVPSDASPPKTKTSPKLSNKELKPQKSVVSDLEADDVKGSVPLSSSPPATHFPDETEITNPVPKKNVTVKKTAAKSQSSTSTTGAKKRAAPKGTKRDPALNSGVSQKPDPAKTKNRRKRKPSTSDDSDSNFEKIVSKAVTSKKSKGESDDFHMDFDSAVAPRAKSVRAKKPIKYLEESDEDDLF
T2 sequence (P11387 whole entry): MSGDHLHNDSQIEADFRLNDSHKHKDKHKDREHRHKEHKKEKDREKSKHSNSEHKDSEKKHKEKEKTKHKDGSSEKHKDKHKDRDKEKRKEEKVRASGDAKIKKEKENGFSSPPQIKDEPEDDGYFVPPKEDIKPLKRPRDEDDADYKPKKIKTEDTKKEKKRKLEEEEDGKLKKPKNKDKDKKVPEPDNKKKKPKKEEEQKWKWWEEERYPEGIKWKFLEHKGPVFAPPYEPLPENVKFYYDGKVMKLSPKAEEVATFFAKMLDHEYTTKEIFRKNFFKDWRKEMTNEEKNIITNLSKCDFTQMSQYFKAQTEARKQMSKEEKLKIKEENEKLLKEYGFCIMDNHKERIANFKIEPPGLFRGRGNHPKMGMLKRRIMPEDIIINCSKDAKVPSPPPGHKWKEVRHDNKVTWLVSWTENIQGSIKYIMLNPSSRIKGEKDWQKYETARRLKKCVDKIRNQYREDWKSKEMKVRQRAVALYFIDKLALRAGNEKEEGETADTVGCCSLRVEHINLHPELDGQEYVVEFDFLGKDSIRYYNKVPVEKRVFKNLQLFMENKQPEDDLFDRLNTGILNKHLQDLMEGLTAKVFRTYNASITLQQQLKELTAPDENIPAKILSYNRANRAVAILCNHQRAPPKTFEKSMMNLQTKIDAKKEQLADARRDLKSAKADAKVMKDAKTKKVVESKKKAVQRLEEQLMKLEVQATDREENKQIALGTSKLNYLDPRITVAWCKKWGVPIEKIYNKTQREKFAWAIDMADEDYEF

Compound `C=C(CC[C@@H](C(=O)O)[C@H]1[C@H](O)C[C@@]2(C)C3=CC[C@H]4C(C)(CO)C(=O)CC[C@]4(C)C3=CC[C@]12C)C(C)C` (some centres not stated) has an IC50 [1] of 49.7 µM.

Compound `C/C(=C\CC[C@@H](C)[C@H]1C[C@H](O)[C@@]2(C)C3=CC[C@H]4C(C)(C)C(=O)CC[C@]4(C)C3=CC[C@]12C)CO` has an IC50 [2] of 1 µM and an IC50 [3] of 41.9 µM.

`CCO[C@@H]1C[C@H]2C(C)(C)[C@H](OC(C)=O)CC[C@]2(C)C2=C1[C@]1(C)[C@@H](OC(C)=O)C[C@H]([C@H](C)C(C/C=C(\C)C(=O)O)OC(C)=O)[C@@]1(C)CC2` (some centres not stated) gave an IC50 [4] of 46.5 µM and an IC50 [2] of 59.1 µM.

For `C=C(CCC(C(=O)O)[C@H]1CC[C@@]2(C)C3=CC[C@H]4C(C)(C)C(=O)CC[C@]4(C)C3=CC[C@]12C)C(C)C` (some centres not stated) [DEHYDROEBURICONIC ACID], the IC50 [5] was 38.4 µM and the IC50 [6] was 4.6 µM.

`CC(C)=CCC[C@@H](C(=O)O)[C@H]1CC[C@@]2(C)C3=CC[C@H]4C(C)(C)[C@@H](O)CC[C@]4(C)C3=CC[C@]12C` [DEHYDROTRAMETENOLIC ACID] showed a GI50 [7] of 39.2 µM and a GI50 [8] of 26.7 µM.

`CC(C)=CCCC(C(=O)O)[C@H]1CC[C@@]2(C)C3=CC[C@H]4C(C)(C)C(=O)CC[C@]4(C)C3=CC[C@]12C` (some centres not stated) [DEHYDROTRAMETENONIC ACID] showed an IC50 [5] of 63.6 µM and an IC50 [6] of 37.5 µM.

With `COc1cc([C@@H]2c3cc4c(cc3[C@@H](O[C@@H]3O[C@@H]5CO[C@@H](C)O[C@H]5[C@H](O)[C@H]3O)[C@H]3COC(=O)[C@H]23)OCO4)cc(OC)c1O` [ETOPOSIDE] the IC50 [9] was 0.08 µM, the IC50 [10] was 0.08 µM and the IC50 [11] was 0.08 µM. It also gave an IC50 [2] of 0.08 µM.

Work on `C/C(=C/CC[C@@H](C)[C@H]1CC[C@@]2(C)C3=C(CC[C@]12C)[C@@]1(C)CCC(=O)C(C)(C)[C@@H]1CC3=O)C(=O)O` [GANODERIC ACID DM] yielded an IC50 [2] of 101 µM and an IC50 [3] of 10.6 µM.

Compound `C/C(=C/CC[C@@H](C)[C@H]1C[C@H](O)[C@@]2(C)C3=CC[C@H]4C(C)(C)C(=O)CC[C@]4(C)C3=CC[C@]12C)C(=O)O` [GANODERIC ACID TR] has an IC50 [3] of 8.5 µM.

With `CC(=O)O[C@@H](C/C=C(\C)C(=O)O)[C@@H](C)[C@H]1C[C@H](OC(C)=O)[C@@]2(C)C3=CC[C@H]4C(C)(C)[C@H](OC(C)=O)CC[C@]4(C)C3=CC[C@]12C` [GANODERIC ACID T] the Activity [12] was 78% and the inhibition in vivo at 28 mg/kg [13] was 63%.

`CC(=O)O[C@H]1C[C@H]([C@H](C)CC/C=C(\C)C(=O)O)[C@@]2(C)CC=C3C(=CC[C@H]4C(C)(C)[C@@H](O)CC[C@]34C)[C@]12C` [GANODERIC ACID X] gave an IC50 [14] of 55 µM and an IC50 [15] of 25 µM.

Work on `C[C@H](CCC=C(CO)CO)[C@H]1CC[C@@]2(C)C3=CC[C@H]4C(C)(C)C(=O)CC[C@]4(C)C3=CC[C@]12C` [GANODERIOL F] yielded a T/C [16] of 64%, a T/C [17] of 54% and an IC50 [2] of 5 µM. The T/C [18] was 45%, the T/C [19] was 38% and the T/C [20] was 54%. For the same compound, the T/C [21] was 63%, the T/C [22] was 79% and the T/C [23] was 48%. For the same compound, the IC50 [24] was 8.5 µM, the IC50 [25] was 25.3 µM and the IC50 [26] was 4 µM. The IC50 [27] was 17 µM, the IC50 [28] was 10.1 mg/L (≈ 22.2 µM) and the IC50 [29] was 106 µM. It also gave an IC50 [6] of 17 µM, an IC50 [30] of 2 mg/L (≈ 4.4 µM) and an IC50 [31] of 3 mg/L (≈ 6.6 µM). It also gave an IC50 [32] of 7.1 mg/L (≈ 15.6 µM).

Work on `CC[C@@]1(O)C(=O)OCc2c1cc1n(c2=O)Cc2cc3cc(O)ccc3nc2-1` [HYDROXYCAMPTOTHECIN] yielded an IC50 [4] of 21.3 µM and an IC50 [2] of 29.5 µM.

Compound `CC(C)=CC[C@@H](O)[C@@H](C)[C@H]1CC[C@@]2(C)C3=C(CC[C@]12C)[C@@]1(C)CC[C@H](O)C(C)(C)[C@@H]1CC3` [INOTODIOL] has an IC50 [33] of 110 µM, an IC50 [34] of 171 µM and a survival at 10 mg/kg [35] of 20.8%. It also gave an IC50 [36] of 13.9 µM, a survival at 3 mg/kg [37] of 9.7% and an IC50 [38] of 25 µM.

With `C=C(CC[C@@H](C(=O)O)[C@H]1[C@H](O)C[C@@]2(C)C3=CC[C@H]4C(C)(C)C(=O)CC[C@]4(C)C3=CC[C@]12C)C(C)C` [POLYPORENIC ACID B] the “inhibition (INH)” value [39] was 83% and the IC50 [40] was 19.8 µM.

With `C=C(C)[C@@H]1CC=C2C(=CC[C@]3(C)[C@@H]([C@@H](CCC=C(C)C)C(=O)O)[C@H](O)C[C@@]23C)[C@@]1(C)CCC(=O)O` [PORICOIC ACID B] the “inhibition (INH)” value [39] was 68%.
